The source of these data is patent US20250295795A1, “PEPTIDE” (priority 2021, published 2025).

Entries after “also recorded” stand apart in the source; their conditions may differ. No end group written: not given here.

In general, viability refers to a per cent measure of how many cells are alive, often set against a control. Lower therefore signals more harm to the cells.

One series has as its system CHO cells. Description: Live cell confocal microscopy: cellular uptake and intracellular distribution of Tat conjugates in CHO cells. It counts as cell-based, Chinese hamster. The following applies: 60 min, post-wash. As to the method: (§1) The cellular uptake and intracellular distribution of Tat-trimers and monomeric controls was investigated by performing live cell confocal microscopy of HeLa (human, cervical cancer) and CHO (Chinese hamster, epithelial) cells incubated with Tat conjugates (1 μM) in serum-free DMEM (60 min). Following washing, images were acquired using a Zeiss 780 confocal microscope fitted with an incubation chamber (FIG. 2). In accordance with observations that free Tat in the cytosol readily enters the nucleus and strongly binds to nucleoli,^29 homogenous staining of cytoplasm and nucleoli were considered as indicative of cells having accumulated free conjugate, not confined to endosomes, for quantification purposes. […] The uptake and intracellular distribution of tri-Tat A is similar in live Hela and CHO cells (FIG. 2b,d,e).
(§2) HeLa and CHO cells were cultured in DMEM supplemented with 10% FBS and penicillin/streptomycin. For post-wash experiments, Tat conjugate was added to the cells in serum free medium, cells incubated at 37° C. in an atmosphere of 5% CO2, culture medium removed at the desired time point, cells washed and transferred to the microscope for imaging. For time course or pre-wash experiments, cells were transferred to the microscope (incubation chamber at 37° C., 5% CO2) and Tat conjugate added directly to cell medium and cells imaged at desired time points. Co-delivery experiments were conducted by adding peptide trimer immediately followed by cargo into serum free medium. Samples were visualised using a Zeiss LSM 780 inverted confocal microscope fitted with a XLmultiS1 incubation chamber and Plan-Apochromat 63×/1.40 Oil DIC M27 objective. Images were analysed using ImageJ software. Digital adjustments and image processing are consistent throughout the manuscript, unless otherwise stated in the figure legend. Statistical analysis was carried out using GraphPad Prism 7 software and all data used for statistical analysis consists of measurements from distinct cells. Where applicable a parametric, unpaired, two-tailed t-test was used for statistical testing.

The subject of series [1] is HeLa cells. Description: Live cell confocal microscopy: cellular uptake and intracellular distribution of Tat conjugates in HeLa cells. Conditions: HeLa cells, 60 min, post-wash. In kind it is cell-based, human. The method, then:
as §1, with “[…]).” for “epithelial) cells incubated with Tat conjugates (1 μM) in serum-free DMEM (60 min).”
Following washing, images were acquired using a Zeiss 780 confocal microscope fitted with an incubation chamber. In accordance with observations that free Tat in the cytosol readily enters the nucleus and strongly binds to nucleoli,^29 homogenous staining of cytoplasm and nucleoli were considered as indicative of cells having accumulated free conjugate, not confined to endosomes, for quantification purposes. The results were compared to tri-Tat A (8) and tri-cTat B (17).
as §2

Series [2] concerns HeLa cells. Description: Co-delivery of antibodies, antibody fragments and RFP into live Hela cells. The following applies: 1 μM peptide. It counts as cell-based, human.
Text: Access to the cytosol by mechanisms that are independent of transmembrane pore formation constitutes a preferred method of co-delivery due to reduced toxicity to the cell. […] Successful delivery of Fab is indicated by homogenous distribution of AF647 signal in the cytosol and nucleus and is only observed in cells which have been transduced with tri-cTat B (FIG. 13). Time course of Fab uptake by tri-cTat B (FIG. 5c) follows a similar pattern as tri-cTat B alone (FIG. 3b, d). Tri-cTat B and Fab form large vesicle-like bodies that appear to release their contents into the cytosol of the cell; unambiguous cytosolic staining by Fab is observed from 23 min. Interaction between peptide trimer and biomacromolecule, mediated by charge-charge interactions is essential for the accumulation of both in endosomes and subsequent release and delivery of cargo into cells. Delivery of relatively β-sheet rich, neutrally charged recombinant RFP was unsuccessful (FIG. 16) due to a lack of association between tri-cTat B and cargo (FIG. 17). On the other hand, interaction diminishes the efficacy of the peptide trimer due to charge masking, emphasising the need to maintain an appropriate peptide to cargo ratio for a given macromolecule. Experiments to explore the efficacy of tri-cTat B in the presence of serum supplemented medium underline this principle; while tri-cTat B continues to function in the presence of serum, the number of transduced cells diminishes (42% (serum) vs. 61% (serum free)), but can be restored by increasing tri-cTat B concentration to 2 μM (79% (serum); FIG. 15). […] This is likely due to the larger size of antibodies and also to the observation that antibodies have a greater tendency to aggregate in the presence of tri-cTat B compared to Fab fragments. […] Finally, we investigated whether it is possible to deliver functional antibodies and antibody fragments into the cytosol and nuclei of cells. β-actin was chosen as a proof-of-principle protein because of its abundance in the cell and formation of distinctive subcellular filaments. To clearly identify actin filaments, Hela cells were transfected with red fluorescent protein fused to actin (actin-RFP) before being incubated with β-actin antibody (mouse IgG2b) or β-actin Fab fragment (mouse) conjugated to AF647 plus tri-cTat B for 30 min. After washing, cells were left for 60 min to allow IgG/Fab to bind to actin filaments. […] To enable objective quantification of co-localization between β-actin filaments and IgG/Fab fragment (white arrows), a co-localization threshold algorithm was used in selected regions of interest (ROI). Pearson's and Manders' coefficients were obtained under Costes' automatic threshold^32 and the co-localized pixels are shown as a mask of yellow pixels of constant intensity (co-localization panels). The significance of the co-localization parameters (Pearson's and Manders' coefficients) was evaluated using the confined displacement algorithm (CDA).
as §2, with “Statistical analysis was carried out using GraphPad Prism 7 software and all data used for statistical analysis consists of measurements from distinct cells. Where applicable a parametric, unpaired, two-tailed t-test was used for statistical testing.” left out

The test system of series [3] is HeLa cells. Description: Membrane integrity / porosity: propidium iodide uptake after trimer treatment. It counts as cell-based, human. The following applies: 1 μM trimer; 40 μM PI added 20 min after trimer. The method, then: To assess membrane integrity, 40 μM propidium iodide (PI; a cell impermeable dye), was added to Hela cells 20 min after the addition of the peptide trimer.

Series [4] can be described thus: MTT assay of metabolic activity (cell viability). Conditions: human, HeLa cells, 1 μM for 60 min. It counts as cell-based. The method, then: Toxicity is a concern with potent intracellular delivery agents. We used an MTT assay to measure the metabolic activity of Hela cells treated with 1 μM tri-Tat A or tri-cTat B for 60 min (FIG. 4d). […] Tri-Tat A is slightly more toxic, which is consistent with the observation that the trimer forms membrane pores (cells 84.4% viable, 4 h post-treatment; 80.2% viable, 3 days post-treatment). The favourable uptake mechanism and low toxicity of tri-cTat B lead us to investigate this agent for its potential to transport biomacromolecular cargos into cells.
Background: Formazan colour is commonly taken as a measure of viable cells.

For series [5], the system named is HeLa cells. Description: Time course of uptake in Hela cells (continuous live cell confocal microscopy, ROI profile analysis). It counts as cell-based, human. Conditions: 1 μM. As to the method: To better understand the mechanism by which tri-Tat A and tri-cTat B enter the cytosol and the nucleus, we investigated the uptake kinetics of the conjugates during the first 15 min after their addition to Hela cells using confocal live cell microscopy. Tri-Tat A (FIG. 3a) or tri-cTat B (FIG. 3b) (1 μM) were added to the cells and images acquired from 1 min to 15 min at 60 sec intervals. The two trimers show distinct uptake patters into Hela cells; to better understand the difference in uptake kinetics, we drew cross sectional profile plots through representative cells treated with tri-Tat A (FIG. 3c) and tri-cTat B (FIG. 3d). […] To investigate whether findings in individual cells also apply to larger populations, we extended the plot profile analysis by designating regions of interest (ROI) corresponding to plasma membrane, cytosol (excluding endosomes), nucleus, and nucleoli along the cross section, using information from brightfield images.^30 Average fluorescence intensities for each ROI, at each time point, in six cells per treatment group were calculated and plotted in FIGS. 3e-3h.
as §2

For the compound “mono-Tat: monomeric control: linear Tat (49-57) peptide labelled with AF488 (RKKRRQRRR; also: AF488 label, place not given here; UniProt P04608 49-57, looked up, fragment)”, the “cellular uptake and intracellular distribution” value is “not taken up” in the series with CHO cells (1 μM, serum-free DMEM); “no cytosolic uptake or nucleolar staining; also recorded: taken up only into endosomes” with CHO cells (10 μM); “not taken up” in the series with HeLa cells [1] (1 μM, serum-free DMEM); “no cytosolic uptake or nucleolar staining; also recorded: taken up only into endosomes” in the series with HeLa cells [1] (10 μM). Moreover, the “cellular uptake of Fab in the presence of the peptide” value in the series on HeLa cells [2] (Fab-AF647, 30 min) was “no cellular uptake”. Moreover, the “cellular uptake of IgG in the presence of the peptide” value in the series on HeLa cells [2] (IgG-AF647, 45 min) is listed as “no cellular uptake”.
For “tri-Tat B: AF488-labelled trimer of linear Tat (49-57) peptide on alkyne functionalized scaffold B (RKKRRQRRR; also: trimer on alkyne functionalized scaffold B, AF488 label, place not given here; UniProt P04608 49-57, looked up, fragment)”, the “cellular uptake and intracellular distribution” value in the series with CHO cells (1 μM, serum-free DMEM) is listed as “no evidence of cytosolic uptake or nucleolar staining; also recorded: only taken up into endosomes”; in the series with HeLa cells [1] (1 μM, serum-free DMEM), “no evidence of cytosolic uptake or nucleolar staining; also recorded: only taken up into endosomes”.
On to `N=C(N)NCCC[C@H](NC(=O)[C@H](CCCNC(=N)N)NC(=O)[C@H](CCCNC(=N)N)NC(=O)[C@H](CCC(N)=O)NC(=O)[C@H](CCCNC(=N)N)NC(=O)[C@H](CCCNC(=N)N)NC(=O)[C@H](CCCCN)NC(=O)[C@H](CCCCN)NC(=O)[C@H](CCCNC(=N)N)NC(=O)CCCc1cn(CC(Cn2cc(CCCC(=O)N[C@@H](CCCNC(=N)N)C(=O)N[C@@H](CCCCN)C(=O)N[C@@H](CCCCN)C(=O)N[C@@H](CCCNC(=N)N)C(=O)N[C@@H](CCCNC(=N)N)C(=O)N[C@@H](CCC(N)=O)C(=O)N[C@@H](CCCNC(=N)N)C(=O)N[C@@H](CCCNC(=N)N)C(=O)N[C@@H](CCCNC(=N)N)C(N)=O)nn2)(Cn2cc(CCCC(=O)N[C@@H](CCCNC(=N)N)C(=O)N[C@@H](CCCCN)C(=O)N[C@@H](CCCCN)C(=O)N[C@@H](CCCNC(=N)N)C(=O)N[C@@H](CCCNC(=N)N)C(=O)N[C@@H](CCC(N)=O)C(=O)N[C@@H](CCCNC(=N)N)C(=O)N[C@@H](CCCNC(=N)N)C(=O)N[C@@H](CCCNC(=N)N)C(N)=O)nn2)Cn2cc(CNC(=O)c3ccc4c(c3)C(=O)OC43c4ccc(N)c(S(=O)(=O)O)c4Oc4c3ccc(N)c4S(=O)(=O)O)nn2)nn1)C(N)=O` (some centres unmarked) [tri-Tat A], for which the “propidium iodide (PI) uptake / pore formation” value in the series with HeLa cells [3] is reported as “significantly higher; also recorded: co-stain with PI”. For the same compound, the “cellular uptake and intracellular distribution” value with CHO cells (1 μM, serum-free DMEM) is “homogenous cytosolic uptake and nucleolar staining; also recorded: taken up into the cytosol and nucleoli”; with HeLa cells [1] (1 μM, serum-free DMEM) it was “homogenous cytosolic uptake and nucleolar staining; also recorded: taken up into the cytosol and nucleoli”. Besides, the viability at 4 h, 1 µM in series [4] (4 h post-treatment) stood at 84.4%. In series [4] (3 days post-treatment), the viability at 72 h, 1 µM came out at 80.2%. The “time after which cytosolic signal increases rapidly” value in the series with HeLa cells [5] is recorded as ~12 min. The “cytosolic signal relative to tri-cTat B (factor)” value in the series with HeLa cells [5] (at 15 min, p<0.05) is recorded as 2. Besides, the “association with plasma membrane (profile plots)” value with HeLa cells [5] (representative cells) is “initial strong association”. Also, the “association with the plasma membrane relative to tri-cTat B” value in the series with HeLa cells [5] (t=1 to 15 min, p<0.05) is listed as “approximately three”.
